Legend:
[1] = test system: Human peripheral blood mononuclear cells; assay: Human Concanavalin-A Proliferation Assay (Con HU Assay); assay type: cell-based; conditions: concanavalin-A stimulated human PBMC; for inhibition at 1 µM / inhibition at 10 µM / IC50 / inhibition at 100 µM: Homo sapiens, PBMC; for inhibition at 1 µM / inhibition at 10 µM / inhibition at 100 µM: 72 h, read-out: % Inhibition of proliferation (at concentrations of 1,10, or 100 μm); for inhibition at 10 µM: concentration 10 μm (in parentheses in the cell); for IC50: tritiated thymidine; for inhibition at 100 µM: concentration 100 μm (in parentheses in the cell)
In short: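 Proliferation read as tritiated thymidine uptake (0.5 μCi/well, 6 h pulse on day 3) in human PBMC cultured 3 days with 2.5 μg/ml (final) concanavalin-A. Cells, 50,000 per well in supplemented RPMI 1640 with 10% FBS, received compound 15 min before mitogen.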

[2] = concentration 1 μm (in parentheses in the cell), 3 days

SMILES | melting point [°C] | inhibition at 1 µM [1, 2] [%] | inhibition at 10 µM ([1]; 3 days) [%] | IC50 [1] [µM] | % Inhibition of proliferation (at concentrations of 1,10, or 100 μm) [1, 2] | inhibition at 100 µM ([1]; 3 days) [%]
O=C(Nc1ccc(-n2nc(C(F)(F)F)cc2C(F)(F)F)cc1-n1nc(C(F)(F)F)cc1C(F)(F)F)c1ccc(F)cc1F [Example 273, N-[2,4-bis[3,5-bis(trifluoromethyl)-1H-pyrazol-1-yl]phenyl]-2,4-difluorobenzamide] | 114 to 115 | 12 | – | – | – | –
COc1cccc2cc(C(=O)Nc3ccc(-n4nc(C(F)(F)F)cc4C(F)(F)F)cc3)oc12 [Example 49, N-[4-[3,5-bis(trifluoromethyl)-1H-pyrazol-1-yl]phenyl]-7-methoxy-2-benzofurancarboxamide] | 109 to 110 | 9 | – | – | – | –
O=C(Nc1ccc(-n2nc(C(F)(F)F)cc2C(F)(F)F)cc1)c1csc([N+](=O)[O-])c1 [Example 257, N-[4-[3,5-bis(trifluoromethyl)-1H-pyrazol-1-yl]phenyl]-5-nitro-3-thiophenecarboxamide] | 164 to 165 | – | 100 | 0.387 | – | –
O=C(Nc1ccc(-n2nc(C(F)(F)F)cc2C(F)(F)F)cc1)c1c(F)ccc([N+](=O)[O-])c1F [Example 230, N-[4-[3,5-bis(trifluoromethyl)-1H-pyrazol-1-yl]phenyl]-2,6-difluoro-3-nitrobenzamide] | 187 to 189 | 64 | – | – | – | –
O=C(Nc1ccc(-n2nc(C(F)(F)F)cc2C(F)(F)F)cc1)C1CCCN1 (stereo not drawn) [Example 242, N-[4-[3,5-bis(trifluoromethyl)-1H-pyrazol-1-yl]phenyl]-2-pyrrolidinecarboxamide] | 82 to 84 | 3 | – | – | – | –
Cn1ncc(C(=O)Nc2ccc(-n3nc(C(F)(F)F)cc3C(F)(F)F)cc2)c1[N+](=O)[O-] [Example 83, N-[4-[3,5-bis(trifluoromethyl)-1H-pyrazol-1-yl]phenyl]-1-methyl-5-nitro-1H-pyrazole-4-carboxamide] | 214 to 216 | – | 99 | 0.071 | – | –
CC(C(=O)Nc1ccc(-n2nc(C(F)(F)F)cc2C(F)(F)F)cc1)c1ccc(C(=O)c2cccs2)cc1 (stereo not drawn) [Example 177, N-[4-[3,5-bis(trifluoromethyl)-1H-pyrazol-1-yl]phenyl]-α-methyl-4-(2-thienylcarbonyl)benzeneacetamide] | < 80 | – | – | – | 4(1) % | –
N#CCC(=O)Nc1ccc(-n2nc(C(F)(F)F)cc2C(F)(F)F)cc1 [Example 52, N-[4-[3,5-bis(trifluoromethyl)-1H-pyrazol-1-yl]phenyl]-2-cyanoacetamide] | 140 to 143 | 26 | – | – | – | –
O=C(Nc1ccc(-n2nc(C(F)(F)F)cc2C(F)(F)F)cc1)Nc1ccc([N+](=O)[O-])cc1Cl [Example 41, N-[4-[3,5-bis(trifluoromethyl)-1H-pyrazol-1-yl]phenyl]-N′-(2-chloro-4-nitrophenyl)urea] | 229 to 230 | – | 100 | 0.343 | – | –
CS(=O)(=O)c1csc(C(=O)Nc2ccc(-n3nc(C(F)(F)F)cc3C(F)(F)F)cc2)c1Cl [Example 165, N-[4-[3,5-bis(trifluoromethyl)-1H-pyrazol-1-yl]phenyl]-3-chloro-4-(methylsulfonyl)-2-thiophenecarboxamide] | 210 to 212 | – | 57 | 6.7 | – | –
O=C(Nc1ccc(-n2nc(C(F)(F)F)nc2Cl)cc1)c1ccncc1F [Example 336, N-(4-(5-chloro-3-(trifluoromethyl)-1H-1,2,4-triazol-1-yl)phenyl)-3-fluoroisonicotinamide] | 167 to 170 | – | – | 1.83 | – | –
N#Cc1cc(C(F)(F)F)nn1-c1ccc(NC(=O)c2ccncc2F)cc1 [Example 304, N-(4-(5-cyano-3-(trifluoromethyl)-1H-pyrazol-1-yl)phenyl)-3-fluoroisonicotinamide] | 161 to 162 | – | – | 0.266 | – | –
O=C(Nc1ccc(-n2nc(C(F)(F)F)cc2C(F)(F)F)cc1)C1CC1c1ccccc1 (stereo not drawn) [Example 68, N-[4-[3,5-bis(trifluoromethyl)-1H-pyrazol-1-yl]phenyl]-2-phenylcyclopropanecarboxamide] | 176 to 178 | – | – | 2.44 | – | 99
O=C(Nc1ccc(-n2nc(C(F)(F)F)cc2C(F)(F)F)cc1)c1ccc(-n2cccc2)cc1 [Example 46, N-[4-[3,5-bis(trifluoromethyl)-1H-pyrazol-1-yl]phenyl]-4-(1H-pyrrol-1-yl)benzamide] | 249 to 252 | 10 | – | – | – | –
O=C(Nc1ccc(-n2nc(C3CCCO3)cc2C(F)(F)F)cc1)c1ccncc1F (stereo not drawn) [Example 345, 3-fluoro-N-(4-(3-tetrahydro-2-furanyl-5-(trifluoromethyl)-1H-pyrazol-1-yl)phenyl)isonicotinamide] | 116 to 118 | – | – | 0.273 | – | –
O=C(Nc1ccc(-n2nc(C(F)(F)F)cc2C(F)(F)F)cc1F)c1ccc(F)cc1F [Example 272, N-[4-[3,5-bis(trifluoromethyl)-1H-pyrazol-1-yl]-2-fluorophenyl]-2,4-difluorobenzamide] | 66 to 67 | 10 | – | – | – | –
O=C(Nc1ccc(-n2nc(C(F)(F)F)cc2OC(F)F)cc1)c1ccccc1F [Example 352, N-(4-(5-(difluoromethoxy)-3-(trifluoromethyl)-1H-pyrazol-1-yl)phenyl)-2-fluorobenzamide] | 130 to 131 | – | – | 0.141 | – | –
COC(C(=O)Nc1ccc(-n2nc(C(F)(F)F)cc2C(F)(F)F)cc1)(c1ccccc1)C(F)(F)F (stereo not drawn) [Example 55, N-[4-[3,5-bis(trifluoromethyl)-1H-pyrazol-1-yl]phenyl]-α-methoxy-α-(trifluoromethyl)benzeneacetamide] | 127 to 129 | 13 | – | – | – | –
O=C(Nc1ccc(-n2nc(C(F)(F)F)cc2C(F)(F)F)cc1)C1(O)CC1 [Example 17, N-[4-[3,5-bis(trifluoromethyl)-1H-pyrazol-1-yl]phenyl]-1-hydroxycyclopropanecarboxamide] | 198 to 200 | 18 | – | – | – | –

Continued, in another order:

melting point [°C] | SMILES | inhibition at 1 µM [1, 2] [%] | inhibition at 10 µM ([1]; 3 days) [%] | IC50 [1] [µM] | % Inhibition of proliferation (at concentrations of 1,10, or 100 μm) [1, 2] | inhibition at 100 µM ([1]; 3 days) [%]
216 to 218 | CS(=O)(=O)c1ccc(C(=O)Nc2ccc(-n3nc(C(F)(F)F)cc3C(F)(F)F)cc2)cc1 [Example 109, N-[4-[3,5-bis(trifluoromethyl)-1H-pyrazol-1-yl]phenyl]-4-(methylsulfonyl)benzamide] | 45 | – | – | – | –
215 to 216 | O=C(Nc1ccc(-n2nc(C(F)(F)F)cc2C(F)(F)F)cc1)c1cc(Cl)nc(Cl)c1 [Example 269, N-[4-[3,5-bis(trifluoromethyl)-1H-pyrazol-1-yl]phenyl]-2,6-dichloro-4-pyridinecarboxamide] | – | 99 | 0.392 | – | –
177 to 178 | O=C(Nc1ccc(-n2nc(C(F)(F)F)cc2C(F)(F)F)cc1)c1ccccc1 [Example 92, N-[4-[3,5-bis(trifluoromethyl)-1H-pyrazol-1-yl]phenyl]benzamide] | – | – | 0.673 | – | 92
204 to 206 | Nc1ccccc1C(=O)Nc1ccc(-n2nc(C(F)(F)F)cc2C(F)(F)F)cc1 [Example 163, 2-amino-N-[4-[3,5-bis(trifluoromethyl)-1H-pyrazol-1-yl]phenyl]benzamide] | – | – | 0.235 | – | 98
197 to 198 | COc1ccc(C(=O)Nc2ccc(-n3nc(C(F)(F)F)cc3C(F)(F)F)cc2)cc1Br [Example 221, N-[4-[3,5-bis(trifluoromethyl)-1H-pyrazol-1-yl]phenyl]-3-bromo-4-methoxybenzamide] | – | 98 | 0.411 | – | –
233 to 235 | O=C(Nc1ccc(-n2nc(C(F)(F)F)cc2C(F)(F)F)cc1)c1ccc(O)c(O)c1 [Example 181, N-[4-[3,5-bis(trifluoromethyl)-1H-pyrazol-1-yl]phenyl]-3,4-dihydroxybenzamide] | – | 100 | 2.24 | – | –
163 to 166 | O=C(Nc1ccc(-n2nc(C(F)(F)F)cc2C(F)(F)F)cc1)c1ccc(Cl)cc1[N+](=O)[O-] [Example 117, N-[4-[3,5-bis(trifluoromethyl)-1H-pyrazol-1-yl]phenyl]-4-chloro-2-nitrobenzamide] | – | – | 0.158 | – | 100
192 to 194 | O=C(Nc1ccc(-n2nc(C(F)(F)F)cc2C(F)(F)F)cc1)c1ccc(Cl)nc1 [Example 249, N-[4-[3,5-bis(trifluoromethyl)-1H-pyrazol-1-yl]phenyl]-6-chloro-3-pyridinecarboxamide] | – | 100 | 0.182 | – | –
222 to 224 | O=C(Nc1ccc(-n2nc(C(F)(F)F)cc2C(F)(F)F)cc1)c1ccc2c(c1)OCO2 [Example 148, N-[4-[3,5-bis(trifluoromethyl)-1H-pyrazol-1-yl]phenyl]-1,3-benzodioxole-5-carboxamide] | – | – | 0.529 | – | 94
180 to 182 | O=C(Nc1ccc(-n2nc(C(F)(F)F)cc2C(F)(F)F)cc1)c1ccccc1I [Example 110, N-[4-[3,5-bis(trifluoromethyl)-1H-pyrazol-1-yl]phenyl]-2-iodobenzamide] | – | 99 | 0.314 | – | –

— US20010044445A1, “AZOLE INHIBITORS OF CYTOKINE PRODUCTION” (priority 1999, published 2001)
